Laboratory results published in patent US20210293788A1, “METHOD FOR IDENTIFYING A CHEMICAL COMPOUND OR AGENT INDUCING UBIQUITINATION OF A PROTEIN OF INTEREST” (CeMM - Forschungszentrum fur Molekulare Medizin GmbH, priority 2018, published 2021).
Entries after “also recorded” stand apart in the source; their conditions may differ.

How the values were obtained:
CRBN [1] = molecular target: T1, CRBN (Homo sapiens, UniProt Q96SW2); test: Stabilization of CRBN by CC-885 pretreatment followed by CSN5i-3 (western blot); type: cell-based; details: 125 nM CC-885 for 15 or 30 min before 100 nM CSN5i-3 for 2 hours
T1 construct: endogenous in cells; host or cells: wild-type cells (KBM7 by context)
Description: Cells were first pretreated with the small-molecule (CC-885) known to recruit a new substrate (GSPT1=Eukaryotic peptide chain release factor GTP-binding subunit ERF3A) to the substrate receptor CRBN of the CRL4^CRBN ligase. Pre-treatment was conducted for either 15 or 30 minutes. Afterwards, cells were treated with the CSN (COP9 signalosome) inhibitor (CNS5i-3) for 2 hours. […] This was shown in FIG. 3 by comparing lane 2 of the CRBN blot (pre-treatment with DMSO/vehicle control) to lanes 4 (15 min pre-treatment) and lane 6 (30 min pre-treatment) of the same western blot. The same blot also documents that the present invention provides for means and methods how to determine the neddylation status of cullins constituting CRLs. As evident from FIG. 3, cells comprising a normal neddylation status or a steady-state neddylation status show two bands corresponding to a non-neddylated and a neddylated cullin, respectively. Average increase of neddylated to non-neddylated approximately 9 kDa. […]

KBM7 cells = test: Dose-ranging cellular viability assays in neddylation-impaired isogenic KBM7 cells; type: cell-based, human; details: for Cytotoxic activity / sensitivity in COPS8- or CAND1-modified cells: KBM7 cells modified in COPS8 or CAND1 versus non-modified control
Description: KBM7 cells mutated for five core genes were isolated and the underlying CRISPR-induced mutations were truncations leading to full knockouts (CAND1) or hypomorphic alleles (UBE2M, COPS8, COPS7B, GPS1). […] The observable shift in efficacy was at least 10-fold and up to 1000-fold, thus providing excellent signal to noise ratios. In sum, neddylation-impaired (NEDD^mut) cell line can be applied to find novel, yet uncharacterized MGs.
This is further exemplified when said cells are treated with the compound CC-885 (a molecular glue that reprograms the substrate receptor cereblon/CRBN to degrade GSPT1), or the PROTAC® compound THAL-SNS-032 (known to reprogram the substrate receptor cereblon/CRBN to degrade the cyclin dependent kinase 9, CDK9) (both see appended FIG. 22).
However, not for every cullin RING ligase (CRL), modifications of the COP9 signalosome subunit 8 (COPS8) or CAND1 (Cullin-associated NEDD8-dissociated protein 1; a substrate receptor exchange factor) lead to an ensuing destabilization via auto-degradation. An example for this is the substrate receptor VHL(von-Hippel-Lindau), which is part of the CRL2^VHL ligase complex. […] Therefore, measuring differential sensitivity of cells manipulated to contain altered neddylation states to a molecular glue/PROTAC® compound is a feasible surrogate to measure whether the substrate receptor that is reprogrammed by said molecular glue/PROTAC® undergoes destabilization/auto-degradation upon altering the neddylation states.

CRBN [2] = molecular target: T1, CRBN; test: Re-stabilization of CRBN by small-molecule degraders after CSN5i-3 pretreatment (western blot); type: cell-based; details: WT cells pretreated 2 h with DMSO, 25, 100 or 500 nM CSN5i-3, then 500 nM compound
Description: To explore the re-stabilization of SR upon ligand treatment, WT cells were pretreated with different doses of CSN5i-3 for 2h to firstly induce SR autodegradation. As a proof of principle, the SR CRBN was used, and the autodegradation by WB was checked (FIG. 2B-D).

CRBN [3] = test: CRBN levels by western blot after CSN5i-3 treatment (autodegradation); type: cell-based, human
Source text: As a first approach, the levels of cereblon (CRBN), the SR of the CRL4^CRBN E3 ligase machinery, were checked by western blot (WB) in the mutant backgrounds. A strong decrease in CRBN levels in the COPS8 (COP9 signalosome complex subunit 8)-mutant cells was observed, and a less prominent downregulation in the CAND1-deficient cells (FIG. 1B). […] The CSN-impaired condition was used as a focus as this condition was sought to chemically mimic the genetic mutants. […] CRBN destabilization following CSN5i-3 treatment were rescued in CUL4A-deficient cells (FIG. 1E) or in cells lacking UBE2G1 (ubiquitin-conjugating enzyme E2 G1), a E2 ubiquitin-conjugating enzyme previously related to target degradation via the CRL4^CRBN ligase (FIG. 1F).

[4] = test system: CRL substrate receptors (SRs) in KBM7 cells; test: Global expression proteomics of substrate receptors after CSN5i-3 treatment; type: cell-based, human; details: 1 μM, 8 h, versus DMSO
Description: In order to survey in an unbiased manner the subset of SRs undergoing autodegradation, global expression proteomics was applied to the different genetic backgrounds: WT, COPS8-mutant and CAND1-deficient KBM7 cells. In addition, expression proteomics following cellular treatment with CSN5i-3 was employed (1 μM, 8 h) (FIG. 1G-I).

DCAF15 = molecular target: T2, DCAF15 (Homo sapiens, UniProt Q66K64); test: DCAF15 HiBit/LgBit luciferase assay (knock-in or ectopic, live-cell or lytic detection); type: cell-based
T2 construct: expressed in transfected cells
Description: Generation of HiBit DCAF15 knock-in cells: HEK293t WT cells at 70-80% confluency were transiently transfected in a 6 well plate with a mix of 3 ug Cas9-sgRNA vector (PX458, addgene #48138, containing sgRNA [NT]), 6 ug of single stranded oligonucleotide donor (ssOND, 20 bp homology flanking the cut site) and 3.6 ug polyethylenimine (FIGS. 10 and 12). 72 hrs post-transfection cells were sorted (SH800 Cell sorter, SONY) for GFP positive cells and recovered for 24 hrs in media. Cells were subsequently seeded at a limiting dilution to generate single clones. Clones were tested after outgrowth for HiBit expression by seeding clonal cells in a black clear bottom 384 well plate and adding Nano-Glo HiBit Lytic buffer (Promega, N3030) reconstituted with recombinant LgBit and Nano-Glo HiBit Lytic Substrate in a 1:1 ratio. HiBit-expressing clones were validated by western blotting and detection of luciferase signal (Promega, N2410) at the correct size. For live cell luciferase detection (FIGS. 11 and 13) 7000 HEK293t cells with a HiBit knock-in at the N-terminus of DCAF15 and stable ectopic expression of LgBit were seeded in 10 uL per well into a black, clear-bottom 384 well plate (Corning, #3764) and incubated over night. 20 uL of media containing 1× Endurazine (Promega, N2570) was added to each well and incubated for 1 hour followed by a baseline luciferase measurement using an EnVision plate reader (Perkin Elmer). Subsequently CSN5i-3 or an equal volume of DMSO was added in 10 uL of media to a final concentration of 500 nM in the assay volume of 40 uL. Luciferase signal was measured hourly for 24 hours. For lytic HiBit detection (FIGS. 11 and 14) 10000 cells were seeded in 10 uL per well into a black clear bottom 384 well plate. After recovery cells were treated by addition of iCSN5-3 or an equal volume of DMSO in 10 uL of media to the cells. After the indicated treatment time cells were lysed by adding 20 uL Nano-Glo HiBit Lytic buffer (Promega, N3030) reconstituted with recombinant LgBit and Nano-Glo HiBit Lytic Substrate. Luciferase signal of each well was normalized to the mean DMSO luciferase signal yielding fold-change over DMSO. Luciferase signal was detected essentially as stated for FIG. 13 with the exception that indisulam (Sigma-Aldrich, SML1225) was added together with CSN5i-3 to cells in 10 uL of media to reach the indicated final concentration (FIG. 15). Luciferase signal of each well and timepoint was normalized to the mean DMSO luciferase signal yielding fold-change over DMSO. […] Luciferase signal was detected essentially as stated for FIG. 15 with the exception that indisulam and dCEMM.1 were added together with iCSN5-3 to cells in the 10 uL treatment to a final concertation of 10 uM (FIG. 17). Luciferase signal of each well and timepoint was normalized to the mean DMSO luciferase signal yielding fold-change over DMSO.

CRBN [5] = molecular target: T1, CRBN; test: CRBN HiBit bioluminescence assay in COPS8 knock-out cells (Example 2); type: cell-based; details: 4 hours of compound treatment
Description: Afterwards, CRISPR/Cas9 is used to knock-out the CSN (COP9 signalosome) subunit COPS8 (COP9 signalosome complex subunit 8). Ensuing loss of CRBN HiBit is assayed via immunoblot and loss of bioluminescence. […] After 4 hours of compound treatment, CRBNHiBit levels are assayed via bioluminescence by adding the detection reagent, which consists of a lysis buffer and recombinant LgBit protein. Within 10 minutes after addition of the detection reagent, luminescence is read with a standard plate reader, and is a proxy for drug-induced changes in CRBN levels.

T1 sequence (Q96SW2 whole entry): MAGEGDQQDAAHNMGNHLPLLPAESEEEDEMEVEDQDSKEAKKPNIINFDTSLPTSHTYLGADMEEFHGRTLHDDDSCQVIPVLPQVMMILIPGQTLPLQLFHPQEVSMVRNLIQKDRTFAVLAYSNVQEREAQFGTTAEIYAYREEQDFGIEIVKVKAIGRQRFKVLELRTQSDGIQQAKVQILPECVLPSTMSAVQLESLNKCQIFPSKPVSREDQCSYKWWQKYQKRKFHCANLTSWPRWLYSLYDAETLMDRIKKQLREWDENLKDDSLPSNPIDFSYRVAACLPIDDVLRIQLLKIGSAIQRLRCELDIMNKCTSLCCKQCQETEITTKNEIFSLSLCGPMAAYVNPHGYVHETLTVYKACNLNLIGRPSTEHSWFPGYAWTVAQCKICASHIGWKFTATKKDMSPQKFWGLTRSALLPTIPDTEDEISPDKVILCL
T2 sequence (Q66K64 whole entry): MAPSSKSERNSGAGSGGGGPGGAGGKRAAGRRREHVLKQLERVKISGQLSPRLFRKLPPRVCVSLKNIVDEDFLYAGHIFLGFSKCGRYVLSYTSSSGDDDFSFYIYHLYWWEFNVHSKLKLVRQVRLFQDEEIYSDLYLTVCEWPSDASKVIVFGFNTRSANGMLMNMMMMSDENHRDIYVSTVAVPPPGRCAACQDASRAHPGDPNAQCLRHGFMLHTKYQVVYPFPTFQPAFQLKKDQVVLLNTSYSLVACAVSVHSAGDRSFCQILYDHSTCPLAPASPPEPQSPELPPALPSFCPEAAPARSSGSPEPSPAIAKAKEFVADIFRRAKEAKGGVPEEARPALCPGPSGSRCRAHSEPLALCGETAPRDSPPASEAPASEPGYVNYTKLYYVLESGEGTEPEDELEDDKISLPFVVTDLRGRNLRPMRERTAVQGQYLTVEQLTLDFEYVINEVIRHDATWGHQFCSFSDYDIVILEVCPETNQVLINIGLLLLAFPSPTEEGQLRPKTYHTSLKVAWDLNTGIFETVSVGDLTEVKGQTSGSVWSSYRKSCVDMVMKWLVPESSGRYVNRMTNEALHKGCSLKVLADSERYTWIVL

Cc1ccc(NC(=O)NCc2ccc3c(c2)CN(C2CCC(=O)NC2=O)C3=O)cc1Cl (stereo not drawn) [CC-885]
CRBN stabilization (western blot) (CRBN [1]): protects from CRBN auto-degradation; also recorded: CRBN was stabilized upon CC-885 treatment in the presence of CSN5i-3 | Cytotoxic activity / sensitivity in COPS8- or CAND1-modified cells (KBM7 cells): reduced activity; also recorded: lose their cytotoxic activity | CRBN stabilization (western blot) (CRBN [2]): time-dependent stabilization of CRBN; also recorded: CRBN was stabilized upon CC-885 treatment in cells treated with DMSO, 25 nM, 100 nM and 500 nM CSN5i-3

Cc1ncsc1-c1ccc([C@H](C)NC(=O)[C@@H]2C[C@@H](O)CN2C(=O)[C@@H](NC(=O)COCCCOCCNC(=O)C[C@@H]2N=C(c3ccc(Cl)cc3)c3c(sc(C)c3C)-n3c(C)nnc32)C(C)(C)C)cc1 [ARV-771]
Cytotoxic activity / sensitivity in COPS8- or CAND1-modified cells (KBM7 cells): sensitivity to ARV-771; also recorded: do not display an altered sensitivity

CC(C)n1nc(C(F)F)cc1C(=O)Nc1ccc([C@H]2[C@@H](O)CCCc3cncn32)c(-c2ccccc2)c1 [CSN5i-3]
CRBN level (western blot) after CSN5i-3 (CRBN [3]; CUL4A-deficient cells (sgRNA targeting CUL4A)): Downregulation of CRBN is rescued | CRBN level (western blot) after CSN5i-3 (CRBN [3]; cells lacking UBE2G1 (sgRNA), 100 nM CSN5i-3, 0, 2, 4 and 6 hours): rescued in cells treated with two sgRNAs targeting UBE2G1 | CRBN level (western blot) (CRBN [3]; cells treated with DMSO, MLN4924 or CSN5i-3): recapitulate CRBN downregulation; also recorded: Downregulation of CRBN is recapitulated | CRBN abundance (expression proteomics) [4]: Downregulation of CRBN | Substrate receptors destabilized (expression proteomics) [4]: only affected a subset of the SRs associated to each of the cullins | DCAF15 level (luciferase signal) after CSN5i-3 (DCAF15; live cells, HiBit-HA knock-in at DCAF15 locus, 500 nM): DCAF15 destabilization | DCAF15 level (luciferase signal) after CSN5i-3 (DCAF15; lytic detection, HiBit-HA knock-in at DCAF15 locus): DCAF15 destabilization | DCAF15 level (luciferase signal) after CSN5i-3 (DCAF15; lytic detection, ectopic overexpression of HiBit-HA-DCAF15): DCAF15 destabilization

CC(C)(C)c1cnc(CSc2cnc(NC(=O)C3CCN(CC(=O)NCCOCCOCCOCCNc4cccc5c4C(=O)N(C4CCC(=O)NC4=O)C5=O)CC3)s2)o1 (stereo not drawn) [THAL-SNS-032]
Cytotoxic activity / sensitivity in COPS8- or CAND1-modified cells (KBM7 cells): reduced activity | CRBN stabilization (western blot) (CRBN [2]; listed as SNS-THAL-032): time-dependent stabilization of CRBN; also recorded: CRBN was stabilized upon SNS-THAL-032 treatment in cells treated with DMSO, 25 nM and 100 nM CSN5i-3

Cc1sc2c(c1C)C(c1ccc(Cl)cc1)=N[C@@H](CC(=O)NCCCCCCCCNC(=O)COc1cccc3c1C(=O)N(C1CCC(=O)NC1=O)C3=O)c1nnc(C)n1-2 (stereo partly drawn) [dBET6]
CRBN HiBit levels (bioluminescence) (CRBN [5]): quick stabilization of CRBN HiBit levels | Cytotoxic activity / sensitivity in COPS8- or CAND1-modified cells (KBM7 cells): reduced activity; also recorded: lose their cytotoxic activity | Resistance of mutant cells in cellular viability assay (KBM7 cells; KBM7 cells mutated in CAND1, UBE2M, COPS8, COPS7B or GPS1 versus wild type): caused resistance | CRBN stabilization (western blot) (CRBN [2]): time-dependent stabilization of CRBN; also recorded: CRBN was stabilized upon dBET6 treatment in cells treated with DMSO, 25 nM and 100 nM CSN5i-3
